26 compounds from ChEMBL document CHEMBL5230092, “PFKFB3 inhibitors as potential anticancer agents: Mechanisms of action, current developments, and structure-activity relationships” (Eur J Med Chem, 2020) can be followed below.

Where only a bound is given, the exact number is not on record here.

Data set [1] can be described thus: Half life in BALB/c mouse at 5 mg/kg, iv by LC-MS/MS analysis. Conditions: in vivo. Type of data set: ADME, organism-based.
The nature of data set [2]: AUC in BALB/c mouse at 5 mg/kg, iv by LC-MS/MS analysis. Type of data set: ADME, organism-based. Also noted: dose 5 mg/kg, route iv. Conditions: in vivo.
A short description of data set [3]: Toxicity in Sprague-Dawley rat assessed as maximum tolerated dose. Particulars: in vivo.
Data set [4] can be described thus: Clearance in BALB/c mouse at 5 mg/kg, iv by LC-MS/MS analysis. Conditions: in vivo. The data set is classed as ADME, organism-based.
A short description of data set [5]: Metabolic stability in human liver microsomes. Type of data set: ADME, Microsome. (In general: Liver microsomes are a subcellular fraction often used to study metabolism.)
Data set [6] in a line: Volume of distribution in Sprague-Dawley rat at 10 mg/kg, iv by LC-MS/MS analysis. The data set is classed as ADME, organism-based. Particulars: in vivo.
In data set [7] the target is T1, 6-phosphofructo-2-kinase/fructose-2,6-bisphosphatase 3 (Homo sapiens, UniProt Q16875). As to the kind of experiment: Inhibition of PFKFB3 (unknown origin) at 250 nM relative to control.
Data set [8] in a line: Half life in Sprague-Dawley rat at 10 mg/kg, iv by LC-MS/MS analysis. Type of data set: ADME, organism-based. Particulars: in vivo.
Data set [9] is described as follows: Cmax in Sprague-Dawley rat at 10 mg/kg, iv by LC-MS/MS analysis. The data set is classed as ADME, organism-based. Also noted: dose 10 mg/kg, route iv. Conditions: in vivo.
Data set [10] can be described thus: Oral bioavailability in Sprague-Dawley rat by LC-MS/MS analysis. Type of data set: ADME, organism-based. Particulars: in vivo.
Data set [11] is described as follows: AUC in Sprague-Dawley rat at 10 mg/kg, iv by LC-MS/MS analysis. The data set is classed as ADME, organism-based. Also noted: dose 10 mg/kg, route iv. Particulars: in vivo.
In data set [12] the target is T1, 6-phosphofructo-2-kinase/fructose-2,6-bisphosphatase 3. In words: Inhibition of PFKFB3 (unknown origin) by ADP-Glo luminescent assay. On the technique in general: In ADP-Glo the light output rises with the ADP produced.
Data set [13] in a line: Cytotoxicity against human Epithelial cell assessed as cell growth inhibition. Type of data set: toxicity, cell-based. Particulars: epithelial cells.
Data set [14] in a line: Half life in iv dosed C57BL/6 mouse by LC-MS/MS analysis. Type of data set: ADME, organism-based. Conditions: in vivo.
Data set [15] concerns the target T1, 6-phosphofructo-2-kinase/fructose-2,6-bisphosphatase 3. As to the kind of experiment: Inhibition of full-length human PFKFB3 (1 to 520 residues) incubated for 2 hrs in presence of ATP by ADP-Glo assay.
Data set [16] has as its system HeLa. As to the kind of experiment: Antiproliferative activity against human HeLa cells assessed as cell growth inhibition measured after 72 hrs by MTT assay. The data set is classed as functional. On the technique in general: Formazan colour is commonly taken as a measure of viable cells.
In another data set the test system is MDA-MB-231. As to the kind of experiment: Antiproliferative activity against human MDA-MB-231 cells assessed as cell growth inhibition measured after 72 hrs by MTT assay. The data set is classed as functional.
The subject of a further data set is A549. In words: Antiproliferative activity against human A549 cells assessed as cell growth inhibition measured after 72 hrs by MTT assay. Type of data set: functional.
Data set [17] deals with T1, 6-phosphofructo-2-kinase/fructose-2,6-bisphosphatase 3. In words: Inhibition of PFKFB3 (unknown origin) at 100 uM relative to control.
The subject of the next data set is HT-29. As to the kind of experiment: Antiproliferative activity against human HT-29 cells assessed as cell growth inhibition measured after 72 hrs by MTT assay. The data set is classed as functional.
The target in data set [18] is T1, 6-phosphofructo-2-kinase/fructose-2,6-bisphosphatase 3. In words: Binding affinity to PFKFB3 (unknown origin) by MST assay.
The target is the same in data set [19]. The data set is classed as cell-based, MIA PaCa-2.
Data set [20] shares this target. The data set is classed as cell-based, PANC-1.
The target is the same in data set [21]. Type of data set: cell-based, NUGC-3.
The target is the same in data set [22]. In words: Inhibition of PFKFB3 (unknown origin) by UV-vis spectrophotometry.
Data set [23] has the same target. In words: Inhibition of PFKFB3 (unknown origin).
Data set [24] has as its system HeLa. In words: Antiproliferative activity against human HeLa cells assessed as cell growth inhibition. Type of data set: functional.
A short description of data set [25]: Metabolic stability in human liver microsomes assessed as clearance. Type of data set: ADME, Microsome. Conditions: read-out: CLH.
Data set [26] can be described thus: Metabolic stability in mouse liver microsomes assessed as clearance. The data set is classed as ADME, Microsome. Particulars: read-out: CLH.
Data set [27] is described as follows: Oral bioavailability in Beagle dog by LC-MS/MS analysis. Conditions: in vivo. Type of data set: ADME, organism-based, Canis lupus familiaris.
Data set [28] can be described thus: Half life in Beagle dog at 6 mg/kg, iv by LC-MS/MS analysis. The data set is classed as ADME, organism-based, Canis lupus familiaris. Particulars: in vivo.
Data set [29] can be described thus: AUC in Beagle dog at 6 mg/kg, iv by LC-MS/MS analysis. Type of data set: ADME, organism-based, Canis lupus familiaris. Also on record: dose 6 mg/kg, route iv. Conditions: in vivo.
For data set [30], the target named is 6-phosphofructo-2-kinase/fructose-2,6-bisphosphatase 4 (Homo sapiens) (UniProt Q16877). In words: Inhibition of PFKFB4 (unknown origin) at 5.94 uM relative to control.
Data set [31] addresses 6-phosphofructo-2-kinase/fructose-2,6-bisphosphatase 1 (Homo sapiens) (UniProt P16118). As to the kind of experiment: Inhibition of PFKFB1 (unknown origin) at 5.94 uM relative to control.
Data set [32] concerns the target 6-phosphofructo-2-kinase/fructose-2,6-bisphosphatase 2 (Homo sapiens) (UniProt O60825). As to the kind of experiment: Inhibition of PFKFB2 (unknown origin) at 5.94 uM relative to control.
Data set [33] in a line: Half life in BALBc mouse at 10 mg/kg, iv by LC-MS/MS analysis. The data set is classed as ADME, organism-based. Particulars: BALB/c, in vivo.
Data set [34] in a line: Oral bioavailability in BALBc mouse by LC-MS/MS analysis. The data set is classed as ADME, organism-based. Conditions: BALB/c, in vivo.
Data set [35] can be described thus: AUC in BALBc mouse at 10 mg/kg, iv by LC-MS/MS analysis. The data set is classed as ADME, organism-based. Also noted: dose 10 mg/kg, route iv. Conditions: BALB/c, in vivo.
Data set [36] addresses T1, 6-phosphofructo-2-kinase/fructose-2,6-bisphosphatase 3. As to the kind of experiment: Inhibition of PFKFB3 (unknown origin) incubated for 90 mins by ADP-Glo luminescent assay.

T1 sequence (Q16875 whole entry): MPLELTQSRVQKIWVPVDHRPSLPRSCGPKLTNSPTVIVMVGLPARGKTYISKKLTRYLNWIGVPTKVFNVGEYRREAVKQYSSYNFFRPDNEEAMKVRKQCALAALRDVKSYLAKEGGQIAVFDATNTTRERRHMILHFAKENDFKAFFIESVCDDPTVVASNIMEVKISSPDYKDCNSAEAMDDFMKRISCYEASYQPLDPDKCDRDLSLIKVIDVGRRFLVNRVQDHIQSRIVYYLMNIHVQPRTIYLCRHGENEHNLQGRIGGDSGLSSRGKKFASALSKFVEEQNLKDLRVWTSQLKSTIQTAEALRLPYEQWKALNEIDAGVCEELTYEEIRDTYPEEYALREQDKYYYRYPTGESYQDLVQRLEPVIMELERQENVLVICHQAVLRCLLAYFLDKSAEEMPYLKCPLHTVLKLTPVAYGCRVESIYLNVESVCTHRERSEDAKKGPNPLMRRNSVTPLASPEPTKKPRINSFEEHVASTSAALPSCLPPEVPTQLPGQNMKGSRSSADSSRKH
Sequence of 6-phosphofructo-2-kinase/fructose-2,6-bisphosphatase 2 (Homo sapiens) (O60825 2-505 limits assumed): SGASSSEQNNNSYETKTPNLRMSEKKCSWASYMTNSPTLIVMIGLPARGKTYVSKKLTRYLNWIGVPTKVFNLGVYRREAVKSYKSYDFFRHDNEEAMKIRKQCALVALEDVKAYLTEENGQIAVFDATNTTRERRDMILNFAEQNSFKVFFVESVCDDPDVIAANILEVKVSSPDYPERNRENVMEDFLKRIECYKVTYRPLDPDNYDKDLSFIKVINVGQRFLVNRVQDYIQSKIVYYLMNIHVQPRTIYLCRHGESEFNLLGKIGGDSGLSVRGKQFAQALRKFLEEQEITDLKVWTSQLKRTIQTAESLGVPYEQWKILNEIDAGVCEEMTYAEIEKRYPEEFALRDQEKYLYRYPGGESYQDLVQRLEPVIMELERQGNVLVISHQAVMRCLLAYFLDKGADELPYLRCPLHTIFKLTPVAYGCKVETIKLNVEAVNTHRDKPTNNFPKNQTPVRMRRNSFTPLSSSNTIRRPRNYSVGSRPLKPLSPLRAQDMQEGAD
Sequence of 6-phosphofructo-2-kinase/fructose-2,6-bisphosphatase 4 (Homo sapiens) (Q16877 whole entry, looked up): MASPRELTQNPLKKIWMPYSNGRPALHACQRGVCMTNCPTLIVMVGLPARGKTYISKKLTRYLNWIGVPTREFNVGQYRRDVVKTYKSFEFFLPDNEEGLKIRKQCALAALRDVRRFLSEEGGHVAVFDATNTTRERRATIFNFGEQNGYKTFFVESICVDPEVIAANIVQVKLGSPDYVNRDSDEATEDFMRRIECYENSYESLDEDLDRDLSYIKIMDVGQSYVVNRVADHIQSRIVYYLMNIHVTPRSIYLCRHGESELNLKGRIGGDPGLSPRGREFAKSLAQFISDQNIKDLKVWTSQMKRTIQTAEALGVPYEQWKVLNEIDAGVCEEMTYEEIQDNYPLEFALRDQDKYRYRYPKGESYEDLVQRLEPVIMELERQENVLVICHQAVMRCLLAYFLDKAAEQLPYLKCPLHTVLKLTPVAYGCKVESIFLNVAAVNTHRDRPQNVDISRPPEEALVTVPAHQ
Sequence of 6-phosphofructo-2-kinase/fructose-2,6-bisphosphatase 1 (Homo sapiens) (P16118 2-471 limits assumed): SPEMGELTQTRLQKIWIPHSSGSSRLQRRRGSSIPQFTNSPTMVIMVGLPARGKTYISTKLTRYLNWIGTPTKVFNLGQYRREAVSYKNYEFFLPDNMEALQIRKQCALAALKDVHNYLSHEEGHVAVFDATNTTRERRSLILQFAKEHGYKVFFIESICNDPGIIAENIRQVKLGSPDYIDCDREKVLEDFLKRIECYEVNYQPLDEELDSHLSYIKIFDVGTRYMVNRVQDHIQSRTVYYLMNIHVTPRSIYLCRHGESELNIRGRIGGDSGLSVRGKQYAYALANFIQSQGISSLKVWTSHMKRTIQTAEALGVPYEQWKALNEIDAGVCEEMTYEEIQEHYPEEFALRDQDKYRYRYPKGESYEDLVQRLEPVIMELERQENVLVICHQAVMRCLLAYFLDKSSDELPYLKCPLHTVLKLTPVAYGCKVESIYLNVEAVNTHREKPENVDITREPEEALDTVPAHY

As usually defined, the half-life is the time needed for the level to fall by half in the phase considered. High values mean slow decline, low ones rapid decline. By AUC is commonly meant concentration integrated over time. High values mean more exposure, low ones less exposure. Usually MTD stands for the largest dose that counted as tolerated. As a reminder, the clearance is the rate of elimination divided by the concentration. Lower therefore signals inefficient removal. For the compound `O=C(/C=C/c1ccc2ccc(C(F)(F)F)cc2n1)c1ccncc1` [PFK-158], the half-life in data set [1] was 10.5 h. Further, the exposure (AUC) in data set [2] was 3240 ng·h/mL. For the same compound, the MTD in [3] is over 40 mg/kg. Moreover, the clearance in data set [4] was 26 mL/min/kg. In addition, in data set [5], the Stability came out at 37%.

A word on the Vd: it is the apparent volume that relates the amount in the body to the concentration in plasma or blood. A lower Vd goes with confinement near the circulation. By inhibition is commonly meant the percentage by which the read-out fell short of the control. By Cmax is commonly meant the peak of the concentration-time curve. As usually defined, the bioavailability is dose-corrected exposure relative to a reference, in per cent. Turning to `Cl.O=C(c1ccncc1)c1cc2c(ccc3ccccc32)[nH]1`, the Vd in data set [6] is 2.5 L/kg. Moreover, the inhibition in [7] was 26.2%. For the same compound, in data set [8], the half-life is 5.5 h. Further, the highest level in data set [9] (Cmax) was 16900 ng/mL. In data set [10], this compound showed a bioavailability of 38%. The AUC in data set [11] stood at 1290 ng·h/mL.

A word on the IC50: it is the concentration needed to halve the response being measured. In turn, `O=C(O)c1ccc(NS(=O)(=O)c2cc(-c3ccc4c(c3)OCO4)c(Cl)s2)cc1O` returned an IC50 in data set [12] of 0.2 µM.

`O=C(/C=C/c1cccnc1)c1ccncc1`: the half-inhibitory concentration (IC50) in data set [13] amounted to 1.4 µM.

Compound `O=C(/C=C/c1ccc2ccccc2n1)c1ccncc1` had a half-life in data set [14] of 5.1 h.

With `O=C(O)c1ccc(NS(=O)(=O)c2cccc(-c3ccc4ncccc4c3)c2)cc1O`, in data set [12], half-maximal inhibition (IC50) was put at 0.28 µM.

For the compound `O=C1NC=NC2C1C=C(c1ccc(Br)cc1)N2c1ccccc1` (stereo not given), the concentration for half-maximal inhibition (IC50) in data set [15] was determined as 0.398 µM.

Turning to `CC(C)OC(=O)c1cccc(-c2cc(S(=O)(=O)Nc3ccc(C(=O)O)c(O)c3)sc2Cl)c1`, the IC50 in data set [12] was found to be 0.15 µM.

As usually defined, the GI50 is the concentration giving 50% growth inhibition. For the compound `Cc1ccc(/C=N/NC(=O)c2nnn(-c3nonc3N)c2-c2ccc([N+](=O)[O-])cc2)cc1`, the GI50 in the data set on HeLa [16] amounted to 15.1 µM; with MDA-MB-231, 18 µM; in the data set with A549 it was 18 µM; in the data set on HT-29, 18 µM. The compound also registered an inhibition in [17] of 17%.

`CC(C)C[C@H](NC(=O)[C@H](CC(C)C)NC(=O)[C@H](Cc1ccccc1)NC(=O)[C@@H](N)CO)C(=O)N[C@@H](CCCN=C(N)N)C(N)=O` had a K in data set [18] of 18 µM.

Take `O=C(OCCO)c1ccc(NS(=O)(=O)c2cccc(-c3cc(F)ccc3O)c2)cc1O`: the IC50 in data set [19], in [20] and in data set [21] was 0.09 µM throughout.

As to `O=C1NC=NC2C1C(c1ccccc1)=CN2c1ccc(Br)cc1` (stereo not given), the IC50 in data set [15] came to 0.398 µM.

As for `CC(C)C[C@H](NC(=O)[C@H](Cc1ccccc1)NC(=O)CNC(=O)[C@H](CO)NC(=O)[C@@H](N)Cc1ccc(O)cc1)C(=O)N[C@H](C(=O)O)[C@@H](C)O`, in [18], the K worked out at 44 µM.

In data set [20], `Cc1c(S(=O)(=O)Nc2cccc(C(=O)O)c2)sc2ccc(C(C)C)cc12` had an IC50 of 2.3 µM.

`O=C(O)c1ccc(NS(=O)(=O)c2cc(Cl)sc2Cl)cc1O` displayed a 50% inhibitory concentration (IC50) in [12] of 0.29 µM.

The compound `N[C@H](Cc1c[nH]c2ccccc12)C(=O)NCC(=O)N[C@H](Cc1ccc(O)cc1)C(=O)O` yielded a K in [18] of 3 µM.

In [22], `COc1cccc([C@H](C)Nc2cc(-c3ccc4ncsc4c3)nc(C)n2)c1` showed an IC50 of under 0.5 µM.

On to `O=C(CBr)NCCOP(=O)(O)O`, for which the IC50 in [23] turned out to be 2000 µM.

As for `CCOC(=O)c1cc2ccc(O)cc2oc1=O`, the GI50 in the data set with HeLa [24] was 2.7 µM.

As to `O=C1NC=NC2C1C(c1ccc(Cl)cc1)=CN2c1ccccc1` (stereo not given), the IC50 in data set [15] amounted to 0.631 µM.

For the compound `Cn1cc([C@H](Nc2cc(-c3ccc4ccn(C)c4c3)c3nccnc3c2)c2cnnn2C)cn1`, the microsomal CLint in data set [25] came out at 50 µL/min/mg; in data set [26], 29 µL/min/mg.

Take `Nc1ccc(C(=O)c2cc3c(ccc4ccccc43)[nH]2)cc1`: the bioavailability in data set [27] came out at 95%. In data set [7], this compound yielded an inhibition of 81.5%. Also, the half-life in data set [28] was 5.8 h. This compound also returned an area under the curve (AUC) in data set [29] of 5070 ng·h/mL.

Regarding `O=c1cc(-c2ccc(O)cc2)oc2c(O)c(O)c(O)c(O)c12`, the inhibition in [30], in data set [31] and in data set [32] was under 50% throughout.

`O=C(c1ccccc1)c1cc2c(ccc3ccccc32)[nH]1` came in with an inhibition in data set [7] of 13.5%. This compound had a half-life in data set [33] of 2.1 h. This compound also came in with a bioavailability in data set [34] of 25%. This compound also came in with an area under the curve (AUC) in data set [35] of 2630 ng·h/mL.

For the compound `COc1ccc(C2=CN(c3cccc(OC)c3)C3N=CNC(=O)C23)cc1` (stereo not given), in data set [15], the half-maximal inhibitory concentration (IC50) was 0.251 µM.

Take `COc1ccc(C(Nc2cc(-c3ccc4ccn(C)c4c3)c3nccnc3c2)c2cnnn2C)cn1` (stereo not given): in data set [36], half-maximal inhibition (IC50) was put at 0.0035 µM.
